Experimental data: ChEMBL document CHEMBL5728071, “Optically active azabicyclo ring derivative” (2020)
pIC50: −log10 of the molar value.

Molecular target: T1, Menin (Homo sapiens, UniProt O00255)
T1 sequence (O00255 whole entry): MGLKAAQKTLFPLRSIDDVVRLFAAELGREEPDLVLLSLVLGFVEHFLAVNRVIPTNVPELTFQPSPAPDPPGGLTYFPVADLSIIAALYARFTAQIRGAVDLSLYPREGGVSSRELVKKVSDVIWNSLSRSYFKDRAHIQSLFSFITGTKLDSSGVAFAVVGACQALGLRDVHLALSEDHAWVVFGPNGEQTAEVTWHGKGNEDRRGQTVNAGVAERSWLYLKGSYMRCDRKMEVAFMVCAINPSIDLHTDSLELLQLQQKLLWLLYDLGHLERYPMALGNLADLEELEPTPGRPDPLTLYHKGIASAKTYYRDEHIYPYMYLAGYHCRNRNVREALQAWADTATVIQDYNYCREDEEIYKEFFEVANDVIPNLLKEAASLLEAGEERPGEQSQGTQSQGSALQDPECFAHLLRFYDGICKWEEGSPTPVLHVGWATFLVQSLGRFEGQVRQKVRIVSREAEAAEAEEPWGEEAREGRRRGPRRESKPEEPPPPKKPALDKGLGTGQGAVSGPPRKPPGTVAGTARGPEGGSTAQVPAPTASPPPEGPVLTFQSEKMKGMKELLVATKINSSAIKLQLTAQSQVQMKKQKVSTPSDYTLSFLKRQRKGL
Experiment: After the incubation, the signal was detected with RUBYstar (BMG LABTECH).

Structure (SMILES): C=C1C[C@H]2CC[C@@H]1N[C@@H]2C(=O)N1CC2(C1)CN(c1ncncc1Oc1ccc(F)cc1C(=O)N(C(C)C)C(C)C)C2
- pIC50: 8.21

Structure (SMILES): C=C1C[C@H]2CC[C@@H]1N[C@@H]2C(=O)N1CCC2(CC1)CN(c1ncncc1Oc1ccc(F)cc1C(=O)N(C(C)C)C(C)C)C2
- pIC50: 8.10
